Reference: publication PMC11637875, “Discovery of novel PARP1/NRP1 dual-targeting inhibitors with strong antitumor potency” (Frontiers in Pharmacology, 2024)

What was measured:
[1] = molecular target: ACK (Homo sapiens, UniProt Q07912); assay: Selectivity profile (123 kinase panel); format: biochemical
[2] = molecular target: AKT3 (Homo sapiens, UniProt Q9Y243); assay: Selectivity profile (123 kinase panel); format: biochemical
[3] = molecular target: AurA (Homo sapiens, UniProt O14965); assay: Selectivity profile (123 kinase panel); format: biochemical
[4] = molecular target: CaMK1α (Homo sapiens, UniProt Q14012); assay: Selectivity profile (123 kinase panel); format: biochemical
[5] = molecular target: CHK2 (Homo sapiens, UniProt O96017); assay: Selectivity profile (123 kinase panel); format: biochemical
[6] = molecular target: EPHA1 (Homo sapiens, UniProt P21709); assay: Selectivity profile (123 kinase panel); format: biochemical
[7] = molecular target: EPHB1 (Homo sapiens, UniProt P54762); assay: Selectivity profile (123 kinase panel); format: biochemical
[8] = molecular target: FER (Homo sapiens, UniProt P16591); assay: Selectivity profile (123 kinase panel); format: biochemical
[9] = molecular target: FGR (Homo sapiens, UniProt P09769); assay: Selectivity profile (123 kinase panel); format: biochemical
[10] = molecular target: JAK2 (Homo sapiens, UniProt O60674); assay: Selectivity profile (123 kinase panel); format: biochemical
[11] = molecular target: PARP3 (Homo sapiens, UniProt Q9Y6F1); assay: Selectivity profile (other isoforms of PARP and NRP family); format: biochemical
[12] = tested on: FHC; assay: Cytotoxicity on normal human cells (MTT); format: cell-based
Description: (§1) Cell viability was measured by MTT assays. MDA-MB-231, MCF-10A, L02, FHC, PNT1A, HEL-299, and HEK-293 cell lines were seeded in 96-well plates at 5 ×10^4 cells/well and incubated overnight. Different concentrations of PPNR1-5 or positive control were then added to each well and cultured at 37°C for 72 h. Afterward, the medium was removed. MTT (5 mg/mL) was dissolved in phosphate-buffered saline (PBS) and filter-sterilized, and then, 20 μL of the prepared MTT solution was added to each well, and the cells were incubated for another 4 h until a purple precipitate was visible. The supernatant was removed by centrifugation, and DMSO (150 μL/well) was added to dissolve the insoluble crystals. The absorbance was determined using an enzyme-linked immunosorbent assay reader at a test wavelength of 570 nm. The assays were performed three times in a parallel manner. The non-linear regression was used to plot a Dose-Response-Inhibition to determine the value of the IC50. The cell inhibition rate was calculated at 2 μM concentration of compound treatment. The data were analyzed using GraphPad Prism 9 software.

[13] = tested on: HEK-293; assay: Cytotoxicity on normal human cells (MTT); format: cell-based; conditions: HEK293, HEK-293 normal human cells
Description: as §1

[14] = tested on: HEL-299; assay: Cytotoxicity on normal human cells (MTT); format: cell-based; conditions: HEL-299 normal human cells
Description: as §1

[15] = tested on: L02; assay: Cytotoxicity on normal human cells (MTT); format: cell-based
Description: as §1

[16] = tested on: MCF-10A; assay: Cytotoxicity on normal human cells (MTT); format: cell-based; conditions: MCF-10A normal human mammary epithelial cells
Description: as §1

[17] = tested on: PNT1A; assay: Cytotoxicity on normal human cells (MTT); format: cell-based
Description: as §1

[18] = tested on: HUVECs; assay: Tube formation analysis; format: cell-based, human
Description: 50 μL of thawed Matrigel (#356234, BD Biosciences, United States) was added to a 96-well plate and incubated at 37°C for 30 min. After Matrigel gelation, HUVECs (1 × 10^5 cells/mL) were seeded into the basement membrane matrix. Each well was filled with 100 μL of cell suspension. […] Finally, five randomly selected fields per well were photographed with an inverted light microscope. The results were analyzed by ImageJ software to measure and record the number of branch points and tube length for each field. The specific steps are to download the “angiogenesis analyzer” plugin and click on ImageJ, Plugings, Macros, Install, angiogenesis analyzer in sequence. At least three parallel replicates were performed for each condition. The relative number of tubes formation was analyzed using GraphPad Prism 9 software.

[19] = tested on: MDA-MB-231 xenograft tumor; assay: In vivo antitumor assay; set-up: species or system BALB/c nude mice; conditions: for body weight (g) in mice, mean / tumor volume (mm^3), mean: 5 mg/kg intraperitoneally every 3 days, n = 6
Description: Twenty-four female BALB/c nude mice (body weight 16–20 g) at 4–6 weeks old were purchased from Changzhou Cavens Experimental Animal Limited Company (Changzhou, China). Mice were adaptively housed for 1 week in a specific pathogen-free (SPF) environment with a temperature of 25°C ± 2°C, a 12-hour light/dark cycle, and free access to food and water. MDA-MB-231 breast cancer cells (200 μL, 1×10^7 cells) were suspended in PBS to formulate cell suspension, and 0.1 mL of cells were injected into the axilla of the left forelimb of mice by subcutaneous injection. […] Equal concentrations of drug-free PBS buffer were used for the vehicle group. Each group was administered every 3 days and the body weight and tumor size of the mice were recorded. Mice were executed when the tumor volume approached 2000 mm^3. Tumor volumes of all mice were measured using vernier calipers. The mice were placed belly up and the longest diameter of the tumor was measured with the inner bayonet of a vernier caliper, and the shortest transverse diameter perpendicular to the diameter was measured with the inner bayonet of a vernier caliper and recorded. Tumor volume was estimated according to the following formula: (c × c × d)/2 (c, the smallest diameter; d, the largest diameter). All animal experiments were performed and approved by the Ethics Committee of China Pharmaceutical University.

Chain of CaMK1α (Q14012 whole entry): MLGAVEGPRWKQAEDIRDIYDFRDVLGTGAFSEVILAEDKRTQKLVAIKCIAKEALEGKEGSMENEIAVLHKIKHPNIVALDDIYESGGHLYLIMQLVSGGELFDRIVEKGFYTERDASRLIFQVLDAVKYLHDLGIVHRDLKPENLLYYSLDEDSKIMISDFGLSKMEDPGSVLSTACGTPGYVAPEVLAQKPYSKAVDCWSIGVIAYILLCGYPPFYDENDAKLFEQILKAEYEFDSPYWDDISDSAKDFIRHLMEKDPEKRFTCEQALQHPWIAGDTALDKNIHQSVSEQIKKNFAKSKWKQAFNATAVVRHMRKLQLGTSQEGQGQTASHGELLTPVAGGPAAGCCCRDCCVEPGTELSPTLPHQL
Chain of AKT3 (Q9Y243 whole entry): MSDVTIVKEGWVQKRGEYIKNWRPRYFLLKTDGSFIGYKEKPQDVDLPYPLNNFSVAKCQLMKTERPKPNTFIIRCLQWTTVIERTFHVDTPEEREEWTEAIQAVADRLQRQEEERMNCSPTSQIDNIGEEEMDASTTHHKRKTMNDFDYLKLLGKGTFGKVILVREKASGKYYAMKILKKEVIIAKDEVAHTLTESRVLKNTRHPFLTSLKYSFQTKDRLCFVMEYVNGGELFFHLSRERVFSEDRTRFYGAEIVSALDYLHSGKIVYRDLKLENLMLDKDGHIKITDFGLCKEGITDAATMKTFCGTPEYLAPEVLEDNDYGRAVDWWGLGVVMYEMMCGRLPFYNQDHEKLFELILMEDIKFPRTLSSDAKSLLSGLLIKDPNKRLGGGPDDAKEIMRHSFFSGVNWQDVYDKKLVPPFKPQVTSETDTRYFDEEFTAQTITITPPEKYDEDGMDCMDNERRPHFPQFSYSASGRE
Chain of EPHB1 (P54762 18-984, species assumed): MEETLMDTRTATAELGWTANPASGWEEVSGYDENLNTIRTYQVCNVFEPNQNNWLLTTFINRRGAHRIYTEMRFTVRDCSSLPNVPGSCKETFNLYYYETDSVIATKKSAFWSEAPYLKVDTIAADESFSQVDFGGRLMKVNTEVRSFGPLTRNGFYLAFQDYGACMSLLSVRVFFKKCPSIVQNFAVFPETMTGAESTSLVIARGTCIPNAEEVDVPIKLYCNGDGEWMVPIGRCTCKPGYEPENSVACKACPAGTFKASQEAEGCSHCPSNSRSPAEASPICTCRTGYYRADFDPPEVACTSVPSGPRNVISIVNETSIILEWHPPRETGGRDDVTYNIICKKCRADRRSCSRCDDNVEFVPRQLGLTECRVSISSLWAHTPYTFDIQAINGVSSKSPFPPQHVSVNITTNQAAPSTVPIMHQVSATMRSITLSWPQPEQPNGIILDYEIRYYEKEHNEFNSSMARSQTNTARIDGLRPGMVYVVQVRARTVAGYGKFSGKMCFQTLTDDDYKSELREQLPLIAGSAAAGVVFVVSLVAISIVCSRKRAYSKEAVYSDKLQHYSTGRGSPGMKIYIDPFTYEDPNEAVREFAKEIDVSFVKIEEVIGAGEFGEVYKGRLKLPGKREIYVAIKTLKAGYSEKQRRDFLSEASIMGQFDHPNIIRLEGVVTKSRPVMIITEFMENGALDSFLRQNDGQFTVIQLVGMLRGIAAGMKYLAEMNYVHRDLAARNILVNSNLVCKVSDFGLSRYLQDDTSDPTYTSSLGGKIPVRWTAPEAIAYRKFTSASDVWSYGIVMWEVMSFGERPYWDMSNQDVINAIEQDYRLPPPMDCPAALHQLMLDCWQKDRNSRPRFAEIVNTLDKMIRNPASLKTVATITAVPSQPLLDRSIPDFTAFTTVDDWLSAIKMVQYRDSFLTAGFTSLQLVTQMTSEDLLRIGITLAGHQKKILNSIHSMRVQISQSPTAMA
Chain of FGR (P09769 whole entry, species assumed): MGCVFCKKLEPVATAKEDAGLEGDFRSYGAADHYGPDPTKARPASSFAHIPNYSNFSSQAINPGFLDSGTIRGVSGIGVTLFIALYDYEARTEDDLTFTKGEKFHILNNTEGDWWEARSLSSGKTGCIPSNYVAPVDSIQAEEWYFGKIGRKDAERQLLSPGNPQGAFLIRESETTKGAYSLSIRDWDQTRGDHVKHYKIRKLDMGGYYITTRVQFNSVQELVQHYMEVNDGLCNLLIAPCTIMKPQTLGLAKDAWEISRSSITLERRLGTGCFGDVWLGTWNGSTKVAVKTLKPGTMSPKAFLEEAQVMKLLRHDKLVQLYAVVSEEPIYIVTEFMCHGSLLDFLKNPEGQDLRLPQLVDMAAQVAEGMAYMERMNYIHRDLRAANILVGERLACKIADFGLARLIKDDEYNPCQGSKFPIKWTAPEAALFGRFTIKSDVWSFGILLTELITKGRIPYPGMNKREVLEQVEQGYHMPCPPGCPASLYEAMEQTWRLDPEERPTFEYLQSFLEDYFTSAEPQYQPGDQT
Chain of PARP3 (Q9Y6F1 whole entry, canonical isoform): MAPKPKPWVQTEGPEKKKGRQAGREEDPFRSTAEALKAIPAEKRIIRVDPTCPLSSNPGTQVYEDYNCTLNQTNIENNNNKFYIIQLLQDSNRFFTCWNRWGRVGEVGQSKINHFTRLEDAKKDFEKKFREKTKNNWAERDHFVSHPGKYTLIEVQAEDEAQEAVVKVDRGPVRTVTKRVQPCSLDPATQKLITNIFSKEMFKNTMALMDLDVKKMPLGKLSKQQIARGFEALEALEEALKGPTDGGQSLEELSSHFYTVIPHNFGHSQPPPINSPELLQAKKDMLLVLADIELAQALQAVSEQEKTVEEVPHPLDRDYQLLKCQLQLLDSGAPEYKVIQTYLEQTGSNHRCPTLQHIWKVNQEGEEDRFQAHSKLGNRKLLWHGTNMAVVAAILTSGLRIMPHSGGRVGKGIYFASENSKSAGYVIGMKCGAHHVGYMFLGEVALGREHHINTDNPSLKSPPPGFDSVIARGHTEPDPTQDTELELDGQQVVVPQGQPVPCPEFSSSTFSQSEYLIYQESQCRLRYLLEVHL
Chain of JAK2 (O60674 whole entry, canonical isoform): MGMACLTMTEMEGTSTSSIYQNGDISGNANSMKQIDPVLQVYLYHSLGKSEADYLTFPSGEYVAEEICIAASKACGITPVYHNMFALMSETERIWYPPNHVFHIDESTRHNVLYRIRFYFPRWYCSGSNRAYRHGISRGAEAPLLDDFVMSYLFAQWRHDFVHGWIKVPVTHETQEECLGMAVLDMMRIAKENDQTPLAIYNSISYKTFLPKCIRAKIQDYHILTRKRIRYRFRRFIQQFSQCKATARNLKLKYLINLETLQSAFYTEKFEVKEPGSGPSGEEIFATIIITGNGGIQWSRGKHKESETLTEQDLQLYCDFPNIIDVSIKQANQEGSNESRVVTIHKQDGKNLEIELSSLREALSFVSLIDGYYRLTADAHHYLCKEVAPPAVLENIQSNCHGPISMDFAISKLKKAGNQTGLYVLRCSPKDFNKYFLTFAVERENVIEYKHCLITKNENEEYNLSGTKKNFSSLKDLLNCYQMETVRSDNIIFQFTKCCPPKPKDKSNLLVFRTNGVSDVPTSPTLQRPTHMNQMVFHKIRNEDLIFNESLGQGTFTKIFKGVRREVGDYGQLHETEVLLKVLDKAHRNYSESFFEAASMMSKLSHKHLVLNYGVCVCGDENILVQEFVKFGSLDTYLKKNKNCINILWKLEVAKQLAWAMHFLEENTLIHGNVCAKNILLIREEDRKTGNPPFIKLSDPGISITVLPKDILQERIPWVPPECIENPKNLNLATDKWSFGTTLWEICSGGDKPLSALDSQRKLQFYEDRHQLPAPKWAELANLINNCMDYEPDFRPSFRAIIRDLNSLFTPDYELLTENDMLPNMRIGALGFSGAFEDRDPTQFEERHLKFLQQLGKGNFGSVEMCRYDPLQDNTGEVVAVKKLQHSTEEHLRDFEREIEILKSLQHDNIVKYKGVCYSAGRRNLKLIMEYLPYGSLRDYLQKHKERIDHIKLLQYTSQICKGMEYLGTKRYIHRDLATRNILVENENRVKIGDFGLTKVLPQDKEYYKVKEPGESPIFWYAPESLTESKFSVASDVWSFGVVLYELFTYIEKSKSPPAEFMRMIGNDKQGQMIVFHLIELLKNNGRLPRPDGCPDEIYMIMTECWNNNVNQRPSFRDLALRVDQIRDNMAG
Chain of CHK2 (O96017 whole entry): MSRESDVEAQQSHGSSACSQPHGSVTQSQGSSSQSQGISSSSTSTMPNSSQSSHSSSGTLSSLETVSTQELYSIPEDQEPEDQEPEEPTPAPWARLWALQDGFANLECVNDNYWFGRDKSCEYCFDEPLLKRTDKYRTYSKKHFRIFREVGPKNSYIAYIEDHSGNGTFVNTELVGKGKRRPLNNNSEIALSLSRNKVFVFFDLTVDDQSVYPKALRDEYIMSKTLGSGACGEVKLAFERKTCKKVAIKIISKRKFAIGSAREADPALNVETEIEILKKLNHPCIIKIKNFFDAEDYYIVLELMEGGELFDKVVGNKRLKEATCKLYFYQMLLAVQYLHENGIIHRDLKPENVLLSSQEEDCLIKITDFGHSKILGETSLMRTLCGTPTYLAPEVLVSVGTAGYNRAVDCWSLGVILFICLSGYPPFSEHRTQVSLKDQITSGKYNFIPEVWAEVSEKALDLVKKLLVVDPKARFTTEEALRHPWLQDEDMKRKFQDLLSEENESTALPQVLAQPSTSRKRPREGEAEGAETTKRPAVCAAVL
Chain of AurA (O14965 whole entry): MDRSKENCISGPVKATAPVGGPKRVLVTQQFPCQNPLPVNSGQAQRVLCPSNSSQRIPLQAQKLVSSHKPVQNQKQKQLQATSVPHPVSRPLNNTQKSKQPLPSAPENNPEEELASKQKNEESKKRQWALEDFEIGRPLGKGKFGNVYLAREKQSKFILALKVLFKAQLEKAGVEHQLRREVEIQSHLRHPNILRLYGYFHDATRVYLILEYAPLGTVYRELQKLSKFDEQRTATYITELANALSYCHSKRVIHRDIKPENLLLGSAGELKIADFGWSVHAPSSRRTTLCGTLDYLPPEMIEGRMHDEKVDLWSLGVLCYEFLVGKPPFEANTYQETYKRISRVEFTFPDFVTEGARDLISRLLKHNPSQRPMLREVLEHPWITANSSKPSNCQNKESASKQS

NC(N)=NCCC[C@H](NCN1CCN(C(=O)c2cc(Cc3n[nH]c(=O)c4ccccc34)ccc2F)CC1)C(=O)O [PPNR-4]
IC50 [1]: > 10 µM | IC50 [2]: > 10 µM | IC50 [3]: > 10 µM | IC50 [4]: > 10 µM | IC50 [5]: > 10 µM | IC50 [6]: > 10 µM | IC50 [7]: > 10 µM | IC50 [8]: > 10 µM | IC50 [9]: > 10 µM | IC50 [10]: > 10 µM | IC50 [11]: > 10 µM | IC50 [12]: > 10 µM | IC50 [13]: > 10 µM | IC50 [14]: > 10 µM | IC50 [15]: > 10 µM | IC50 [16]: > 10 µM | IC50 [17]: > 10 µM | tube formation ([18]; 2, 6, and 18 μM, compared with the control group): significantly interfered with tube formation in a dose-dependent manner | activity at 6 µM ([18]; Homo sapiens, HUVEC, 8 h, 6 μM, 8 h, single replicates, read-out: Relative number of tube formations (% of control)): 6% | activity at 18 µM ([18]; Homo sapiens, HUVEC, 8 h, 18 μM, 8 h, single replicates, read-out: Relative number of tube formations (% of control)): 0% | inhibitory effect on tumor volume growth ([19]; 5 mg/kg, in comparison to the olaparib or EG00229-treated groups): more remarkable inhibitory effect on tumor volume growth | body weight (g) in mice, mean ([19]; day 0): 18.41 g | tumor volume (mm^3), mean ([19]; day 0): 99 mm^3 | body weight (g) in mice, mean ([19]; day 3): 18.62 g | tumor volume (mm^3), mean ([19]; day 3): 155 mm^3 | body weight (g) in mice, mean ([19]; day 6): 18.85 g | tumor volume (mm^3), mean ([19]; day 6): 196 mm^3 | body weight (g) in mice, mean ([19]; day 9): 19.07 g | tumor volume (mm^3), mean ([19]; day 9): 253 mm^3 | body weight (g) in mice, mean ([19]; day 12): 19.33 g | tumor volume (mm^3), mean ([19]; day 12): 226 mm^3
